Measurements from article PMC8498988, “Scaffold Hybridization Strategy Leads to the Discovery of Dopamine D3 Receptor-Selective or Multitarget Bitopic Ligands Potentially Useful for Central Nervous System Disorders” (ACS Chemical Neuroscience, 2021).

Columns and labels:
5-HT2AR = 5-HT2AR (Homo sapiens, UniProt P28223); test: 5-HT2A IP-1 formation (HEK-h5HT2A cells); conditions: for % inhib., 5-HT2A IP-1 formation: antagonist mode, normalized to the inhibition by 10 μM ketanserin; for functional behavior at 5-HT2AR: in words
5-HT2AR, sequence (P28223 whole entry): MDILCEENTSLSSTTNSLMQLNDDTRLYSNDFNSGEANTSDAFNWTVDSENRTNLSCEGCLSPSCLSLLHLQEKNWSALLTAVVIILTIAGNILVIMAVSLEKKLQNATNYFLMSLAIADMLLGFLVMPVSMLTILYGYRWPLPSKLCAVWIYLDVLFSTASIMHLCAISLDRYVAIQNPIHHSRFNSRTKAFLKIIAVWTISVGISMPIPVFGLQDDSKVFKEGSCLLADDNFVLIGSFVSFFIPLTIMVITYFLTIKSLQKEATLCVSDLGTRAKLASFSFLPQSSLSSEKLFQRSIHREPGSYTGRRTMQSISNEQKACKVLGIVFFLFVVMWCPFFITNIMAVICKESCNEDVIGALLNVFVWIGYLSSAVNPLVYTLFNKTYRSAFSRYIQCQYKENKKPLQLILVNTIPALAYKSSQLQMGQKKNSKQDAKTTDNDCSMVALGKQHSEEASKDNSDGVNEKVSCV
Experimental: HEK-h5HT2A or HEK-h5HT2C cells are used as the tissue source. The day before the experiment, cells are plated in 24-well plates at a density of 400,000 cells per well using DMEM supplemented with charcoal-stripped FetalClone. Drugs are made up in stimulation buffer supplied in the kit. Medium is removed from the well, test compounds or serotonin or antagonist or buffer is added, and the cells are incubated for 1 h. The cells are lysed for 30 min, and 50 μL of cell lysate is added to the IP-1 plates. After the addition of appropriate antibodies, the plates are incubated for 3 h, washed six times, incubated with the substrate for 20 min, and, after termination of the reaction, the plate is read on a plate reader at 450 nm with a correction at 620 nm.

D3R = D3R (Homo sapiens, UniProt P35462); test: Radioligand competition binding at human D3R ([3H]N-methylspiperone, HEK293 membranes); design: expressed in transfected cells; host or cells: HEK293; conditions: for Ki: [3H]N-methylspiperone, HEK 293 cells expressing hD3R, read-out: Ki ± SEM, D3R; for D2/D3: ratio of Ki values D2R/D3R; for D4/D3: ratio of Ki values D4R/D3R
D3R, sequence (P35462 whole entry): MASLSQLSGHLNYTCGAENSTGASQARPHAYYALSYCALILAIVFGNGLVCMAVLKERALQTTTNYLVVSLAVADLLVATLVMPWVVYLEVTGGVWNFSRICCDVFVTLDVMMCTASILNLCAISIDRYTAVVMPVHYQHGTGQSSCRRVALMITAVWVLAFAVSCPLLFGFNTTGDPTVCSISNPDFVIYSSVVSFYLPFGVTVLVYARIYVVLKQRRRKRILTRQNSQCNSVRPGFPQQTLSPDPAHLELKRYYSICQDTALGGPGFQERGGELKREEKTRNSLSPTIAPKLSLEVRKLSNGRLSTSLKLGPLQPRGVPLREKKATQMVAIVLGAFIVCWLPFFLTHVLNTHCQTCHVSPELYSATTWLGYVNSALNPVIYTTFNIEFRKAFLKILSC
Experimental: (§1) The novel hybrid derivatives 3–11 were tested at hD2R, hD3R, or hD4R stably expressed in HEK293 cells by competition binding assays, using [^3H]N-methylspiperone as the radioligand, to evaluate their D2-like affinity and subtype selectivity, following the previously reported procedures.[41],[45],[46]
(§2) Binding at dopamine D2-like receptors was determined using previously described methods.[41],[45],[46] Membranes were prepared from HEK293 cells stably expressing human D2, D3, or D4, grown in a 50:50 mix of Dulbecco’s minimal essential medium (DMEM) and Ham’s F12 culture media, supplemented with 20 mM HEPES, 2 mM L-glutamine, 0.1 mM nonessential amino acids, 1× antibiotic/antimycotic, 10% heat-inactivated fetal bovine serum, and 200 μg/mL hygromycin (Life Technologies, Grand Island, NY) and kept in an incubator at 37 °C and 5% CO2. Upon reaching 80–90% confluency, the cells were harvested using premixed Earle’s Balanced Salt Solution (EBSS) with 5 μM EDTA (Life Technologies) and centrifuged at 3000 rpm for 10 min at 21 °C. The supernatant was removed, and the pellet was resuspended in 10 mL hypotonic lysis buffer (5 mM MgCl2, 5 mM Tris, pH 7.4 at 4 °C) and centrifuged at 20,000 rpm for 30 min at 4 °C. The pellet was then resuspended in fresh EBSS buffer made from 8.7 g/L Earle’s Balanced Salts without phenol red (US Biological, Salem, MA), 2.2 g/L sodium bicarbonate, pH to 7.4. A Bradford protein assay (Bio-Rad, Hercules, CA) was used to determine the protein concentration, and membranes were diluted to 500 μg/mL and stored at −80 °C for later use. Radioligand competition binding experiments were conducted using thawed membranes. Test compounds were freshly dissolved in 30% DMSO and 70% H2O to a stock concentration of 100 μM. To assist the solubilization of free-base compounds, 10 μL of glacial acetic acid was added along with DMSO. Each test compound was then diluted into 13 half-log serial dilutions using 30% DMSO vehicle; the final test concentrations ranged from 10 μM to 10 pM. The previously frozen membranes were diluted in fresh EBSS to a 100 μg/mL (for D2 or D3) or 200 μg/mL (D4) stock for binding. Radioligand competition experiments were conducted in glass tubes containing 300 μL of fresh EBSS buffer, 50 μL of diluted test compound, 100 μL of membranes (10 μg of total protein for D2 or D3 and 20 μg of total protein for D4), and 50 μL of [^3H]N-methylspiperone (0.4 nM final concentration; PerkinElmer). Nonspecific binding was determined using 10 μM butaclamol (Sigma-Aldrich, St. Louis, MO), and total binding was determined with the 30% DMSO vehicle. All compound dilutions were tested in triplicate and the reaction was incubated for 1 h at room temperature. The reaction was terminated by filtration through Whatman GF/B filters, presoaked for 1 h in 0.5% polyethylenimine, using a Brandel R48 filtering manifold (Brandel Instruments, Gaithersburg, MD). The filters were washed three times with 3 mL of ice-cold EBSS buffer and transferred to scintillation vials. CytoScint liquid scintillation cocktail (3 mL, MP Biomedicals, Solon, OH) was added, and vials were counted using a PerkinElmer Tri-Carb 2910 TR liquid scintillation counter (Waltham, MA).

D4R = target: T1, D4R (Homo sapiens, UniProt P21917); test: Radioligand competition binding at human D4R ([3H]N-methylspiperone, HEK293 membranes); design: expressed in transfected cells; host or cells: HEK293; conditions: HEK 293 cells expressing hD4R, read-out: Ki ± SEM, D4R
T1 sequence (P21917 1-419): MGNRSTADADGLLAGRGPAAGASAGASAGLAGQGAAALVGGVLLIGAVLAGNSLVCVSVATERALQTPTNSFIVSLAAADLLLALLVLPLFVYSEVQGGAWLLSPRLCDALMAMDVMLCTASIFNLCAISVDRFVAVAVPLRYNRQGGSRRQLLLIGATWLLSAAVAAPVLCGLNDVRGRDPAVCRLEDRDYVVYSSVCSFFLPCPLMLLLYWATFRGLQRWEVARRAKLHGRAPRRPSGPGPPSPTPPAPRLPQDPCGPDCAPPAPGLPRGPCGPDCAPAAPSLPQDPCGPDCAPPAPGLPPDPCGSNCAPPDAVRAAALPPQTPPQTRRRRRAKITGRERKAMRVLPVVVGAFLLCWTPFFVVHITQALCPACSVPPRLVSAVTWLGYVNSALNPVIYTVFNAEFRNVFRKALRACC
Experimental: as §1, §2

Row | SMILES | % inhib., 5-HT2A IP-1 formation (5-HT2AR) | functional behavior at 5-HT2AR (5-HT2AR) | Ki (D3R) | D2/D3 (D3R) | D4/D3 (D3R) | Ki (D4R)
1 | O=C(NCCCCN1CCN(c2cccc(Cl)c2Cl)CC1)C1COC(c2ccccc2)(c2ccccc2)CO1 (centres unmarked) [compound 6, N-(4-(4-(2,3-Dichlorophenyl)piperazin-1-yl)butyl)-5,5-diphenyl-1,4-dioxane-2-carboxamide] | (88.6) % | efficacious D2R and 5-HT2AR antagonists with high and low potency, respectively | 1.58 ± 0.24 nM | 18 | 35 | 54.6 ± 7.3 nM
2 | O=C(NCCCCN1CCN(c2cccc(Cl)c2Cl)CC1)C1COc2ccccc2O1 (centres unmarked) [compound 9, N-(4-(4-(2,3-Dichlorophenyl)piperazin-1-yl)butyl)-2,3-dihydrobenzo[b][1,4]dioxine-2-carboxamide] | (86.8) % | efficacious D2R and 5-HT2AR antagonists with high and low potency, respectively | 2.16 ± 0.63 nM | 22 | 35 | 74.7 ± 24.5 nM
3 | O=C(NCCCCN1CCN(c2cccc(Cl)c2Cl)CC1)C1COCC(c2ccccc2)(c2ccccc2)O1 (centres unmarked) [compound 3, N-(4-(4-(2,3-Dichlorophenyl)piperazin-1-yl)butyl)-6,6-diphenyl-1,4-dioxane-2-carboxamide] | (45.4) % |  | 2.39 ± 0.69 nM | 143 | 566 | 1350 ± 449 nM
